Usually efflux ratio stands for the permeability from basolateral to apical divided by that in the opposite direction, in the common usage. What is called Ki is the dissociation constant of the complex between target and ligand, obtained from inhibition or displacement.

This is an account of results in paper PMC3843973 (Journal of medicinal chemistry, 2013).

The target in one series is rat α3β4 nAChR (Rattus norvegicus, UniProt P04757+P12392). The conditions noted are these: cited from earlier work.
In a further series the target is human α4β2-nAChRs (Homo sapiens, UniProt P17787+P43681). The series is classed as cell-based. Conditions: mixture of HS and LS α4β2-nAChRs; 10 min preincubation.
The next series deals with BALB/cJ male mice. The conditions noted are these: mouse.
A further series relates to Caco-2 cells. Briefly: bidirectional Caco-2 cell permeability assay. Conditions: Caco-2 bidirectional. The series is classed as in vitro ADME. In general terms: Caco-2 cells form a polarised layer with tight junctions and transporters.
Series [1] is described as follows: bidirectional Caco-2 cell permeability assay. The series is classed as in vitro ADME. The conditions noted are these: human, Caco-2, pH 7.4.
Series [2] in a line: chemical stability on storage. It counts as physicochemical. The conditions noted are these: stored at room temperature for several months.
Series [3] concerns strains TA98, TA100, TA1535, and TA1537. Briefly: bacteria reversion mutation assay. The conditions noted are these: strain TA1537 in the presence of S9 fraction, 50 and 100 μM.
Another series addresses rat α2β4 nAChR (Rattus norvegicus, UniProt P12389+P12392). Conditions: read-out: Ki α2β4; cited from earlier work.
For a further series, the target named is rat α2β2 nAChR (Rattus norvegicus, UniProt P12389+P12390). Conditions: read-out: Ki α2β2; cited from earlier work.
The next series concerns the target rat α3β2 nAChR (Rattus norvegicus, UniProt P04757+P12390). Conditions: read-out: Ki α3β2; cited from earlier work.
The next series has as its target rat α4β4 nAChR (Rattus norvegicus, UniProt P09483+P12392). Conditions: read-out: Ki α4β4; cited from earlier work.
Series [4] addresses α4β2*-nAChR, prepared from rat forebrain (Rattus norvegicus, UniProt P09483+P12390). The conditions noted are these: read-out: Ki α4β2*; cited from earlier work.
For a further series, the target named is rat α4β2 nAChR (Rattus norvegicus, UniProt P09483+P12390). The conditions noted are these: read-out: Ki α4β2; cited from earlier work.

Read-outs that look alike come from different tables or passages of the source.

rat α3β4 nAChR, sequence (P12392 21-495): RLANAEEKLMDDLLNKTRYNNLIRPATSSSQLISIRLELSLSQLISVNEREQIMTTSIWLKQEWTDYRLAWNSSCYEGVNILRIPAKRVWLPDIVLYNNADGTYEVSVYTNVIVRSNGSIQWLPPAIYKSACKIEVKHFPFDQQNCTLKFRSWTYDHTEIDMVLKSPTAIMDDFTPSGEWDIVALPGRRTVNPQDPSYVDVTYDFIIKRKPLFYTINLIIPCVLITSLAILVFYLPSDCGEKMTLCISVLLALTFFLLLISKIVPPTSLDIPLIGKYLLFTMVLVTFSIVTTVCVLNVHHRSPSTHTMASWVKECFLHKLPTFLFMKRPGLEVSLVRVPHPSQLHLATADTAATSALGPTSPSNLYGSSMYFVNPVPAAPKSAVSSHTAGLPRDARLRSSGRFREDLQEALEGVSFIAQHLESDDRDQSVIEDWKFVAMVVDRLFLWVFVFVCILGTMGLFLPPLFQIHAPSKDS
rat α3β4 nAChR, sequence (P04757 26-499): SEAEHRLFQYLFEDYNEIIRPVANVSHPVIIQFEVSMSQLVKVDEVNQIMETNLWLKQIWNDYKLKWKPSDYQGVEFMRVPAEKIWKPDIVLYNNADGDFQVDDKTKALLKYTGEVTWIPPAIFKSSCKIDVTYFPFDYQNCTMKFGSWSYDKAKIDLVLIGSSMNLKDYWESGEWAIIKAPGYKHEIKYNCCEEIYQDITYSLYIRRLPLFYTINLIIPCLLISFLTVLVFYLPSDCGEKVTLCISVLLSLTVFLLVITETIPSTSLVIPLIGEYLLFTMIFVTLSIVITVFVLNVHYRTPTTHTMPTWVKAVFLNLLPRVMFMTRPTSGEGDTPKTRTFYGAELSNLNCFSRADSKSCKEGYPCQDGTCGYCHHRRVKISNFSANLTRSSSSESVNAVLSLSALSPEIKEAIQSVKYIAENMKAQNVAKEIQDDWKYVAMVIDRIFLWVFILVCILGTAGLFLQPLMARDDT
rat α4β2 nAChR, sequence (P12390 25-500): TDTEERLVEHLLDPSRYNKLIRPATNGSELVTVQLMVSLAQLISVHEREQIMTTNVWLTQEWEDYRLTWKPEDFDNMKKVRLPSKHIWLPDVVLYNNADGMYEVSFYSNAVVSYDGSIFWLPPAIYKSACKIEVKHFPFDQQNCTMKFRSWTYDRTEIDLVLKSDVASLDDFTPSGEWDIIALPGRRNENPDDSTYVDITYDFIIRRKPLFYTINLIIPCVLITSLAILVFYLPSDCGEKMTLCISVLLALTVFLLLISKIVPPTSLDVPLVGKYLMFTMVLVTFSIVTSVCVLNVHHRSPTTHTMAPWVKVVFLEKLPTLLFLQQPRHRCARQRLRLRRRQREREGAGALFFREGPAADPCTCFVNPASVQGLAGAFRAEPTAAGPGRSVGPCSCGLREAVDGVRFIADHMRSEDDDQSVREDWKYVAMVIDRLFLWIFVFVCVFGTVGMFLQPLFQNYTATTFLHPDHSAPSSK
rat α4β2 nAChR, sequence (P09483 31-630): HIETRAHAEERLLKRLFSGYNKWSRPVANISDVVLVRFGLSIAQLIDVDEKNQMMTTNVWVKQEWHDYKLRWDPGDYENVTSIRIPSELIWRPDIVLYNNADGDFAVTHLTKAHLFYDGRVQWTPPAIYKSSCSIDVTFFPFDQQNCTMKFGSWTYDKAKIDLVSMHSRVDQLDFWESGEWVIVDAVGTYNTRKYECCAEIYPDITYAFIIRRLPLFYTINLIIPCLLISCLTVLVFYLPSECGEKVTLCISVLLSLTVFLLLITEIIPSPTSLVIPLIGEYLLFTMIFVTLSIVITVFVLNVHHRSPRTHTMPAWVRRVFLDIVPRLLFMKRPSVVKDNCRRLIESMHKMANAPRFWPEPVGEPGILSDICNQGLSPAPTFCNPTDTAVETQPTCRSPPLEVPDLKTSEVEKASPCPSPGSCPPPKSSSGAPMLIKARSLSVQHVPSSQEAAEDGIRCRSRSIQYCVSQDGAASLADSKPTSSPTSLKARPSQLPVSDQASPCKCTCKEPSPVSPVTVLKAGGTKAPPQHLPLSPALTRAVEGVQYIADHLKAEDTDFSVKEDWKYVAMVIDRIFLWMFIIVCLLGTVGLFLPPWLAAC
rat α3β2 nAChR, sequence (P12390 25-500): as the sequence (P12390 25-500) above
rat α3β2 nAChR, sequence (P04757 26-499): as the sequence (P04757 26-499) above
human α4β2-nAChRs, sequence (P43681 29-627 limits assumed): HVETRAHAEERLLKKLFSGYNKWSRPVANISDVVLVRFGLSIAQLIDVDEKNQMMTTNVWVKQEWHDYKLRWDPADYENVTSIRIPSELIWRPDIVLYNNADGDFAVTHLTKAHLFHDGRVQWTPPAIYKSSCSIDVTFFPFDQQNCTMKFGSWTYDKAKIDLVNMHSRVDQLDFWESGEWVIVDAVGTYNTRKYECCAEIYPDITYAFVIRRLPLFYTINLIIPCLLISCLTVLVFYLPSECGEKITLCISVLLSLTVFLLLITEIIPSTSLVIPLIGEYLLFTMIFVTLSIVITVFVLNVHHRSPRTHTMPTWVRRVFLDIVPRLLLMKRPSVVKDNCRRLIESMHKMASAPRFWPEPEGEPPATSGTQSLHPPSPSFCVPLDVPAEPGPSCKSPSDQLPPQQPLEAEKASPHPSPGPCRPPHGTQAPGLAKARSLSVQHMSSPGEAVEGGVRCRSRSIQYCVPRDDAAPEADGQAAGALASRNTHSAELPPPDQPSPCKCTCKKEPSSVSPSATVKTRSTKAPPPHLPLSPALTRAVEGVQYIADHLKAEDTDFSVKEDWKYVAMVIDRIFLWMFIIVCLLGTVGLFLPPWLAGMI
human α4β2-nAChRs, sequence (P17787 26-502): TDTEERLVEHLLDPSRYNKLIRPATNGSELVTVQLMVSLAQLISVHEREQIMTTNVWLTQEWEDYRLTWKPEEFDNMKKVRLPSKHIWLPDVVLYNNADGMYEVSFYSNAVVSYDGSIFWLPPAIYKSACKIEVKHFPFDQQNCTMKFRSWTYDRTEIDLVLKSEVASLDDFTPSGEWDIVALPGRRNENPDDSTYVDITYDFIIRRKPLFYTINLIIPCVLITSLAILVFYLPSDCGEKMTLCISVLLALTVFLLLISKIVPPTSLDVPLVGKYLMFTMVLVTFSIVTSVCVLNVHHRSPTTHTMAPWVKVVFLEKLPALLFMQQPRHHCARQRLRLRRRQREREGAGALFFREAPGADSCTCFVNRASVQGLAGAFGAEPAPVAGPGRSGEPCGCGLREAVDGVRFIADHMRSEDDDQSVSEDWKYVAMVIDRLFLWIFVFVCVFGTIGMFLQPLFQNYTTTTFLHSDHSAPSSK
rat α4β4 nAChR, sequence (P12392 21-495): as the sequence (P12392 21-495) above
rat α4β4 nAChR, sequence (P09483 31-630): as the sequence (P09483 31-630) above
rat α2β2 nAChR, sequence (P12389 28-511): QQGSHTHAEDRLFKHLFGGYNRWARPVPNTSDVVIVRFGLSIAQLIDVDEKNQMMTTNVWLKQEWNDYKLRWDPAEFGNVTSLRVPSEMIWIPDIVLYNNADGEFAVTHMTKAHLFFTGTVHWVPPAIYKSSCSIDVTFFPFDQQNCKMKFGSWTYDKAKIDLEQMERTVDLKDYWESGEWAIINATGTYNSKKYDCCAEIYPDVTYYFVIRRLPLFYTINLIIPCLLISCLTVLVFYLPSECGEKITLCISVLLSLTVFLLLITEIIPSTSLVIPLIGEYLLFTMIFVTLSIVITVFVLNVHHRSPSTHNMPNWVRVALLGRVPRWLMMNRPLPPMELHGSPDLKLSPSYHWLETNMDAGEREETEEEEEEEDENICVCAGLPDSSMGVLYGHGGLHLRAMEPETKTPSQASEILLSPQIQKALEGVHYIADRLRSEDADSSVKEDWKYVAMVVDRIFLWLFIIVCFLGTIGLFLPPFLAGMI
rat α2β2 nAChR, sequence (P12390 25-500): as the sequence (P12390 25-500) above
rat α2β4 nAChR, sequence (P12389 28-511): as the sequence (P12389 28-511) above
rat α2β4 nAChR, sequence (P12392 21-495): as the sequence (P12392 21-495) above
α4β2*-nAChR, prepared from rat forebrain, sequence (P09483 31-630): as the sequence (P09483 31-630) above
α4β2*-nAChR, prepared from rat forebrain, sequence (P12390 25-500): as the sequence (P12390 25-500) above

For `COCC[C@H]1C[C@@H]1c1cncc(OC[C@@H]2CCN2)c1` [Compound 4], the “Ki α3β4” value on rat α3β4 nAChR was “NA (not active, defined as < 50% binding in the primary assay at 10 μM)”. In addition, at human α4β2-nAChRs, the “Inactivation α4β2 Efficacy” value stood at 71 ± 5.5%.
In the case of `COCC[C@H]1C[C@@H]1c1cncc(OC[C@@H]2CCCN2)c1.O=C(O)C(F)(F)F` [Compound 24, 3-[(2(S)-Pyrrolidinyl)methoxy]-5-[(1S,2R)-2-(2-methoxyethyl)cyclopropyl]pyridine Trifluoroacetate], the “effect in the forced swim test” value in the series on BALB/cJ male mice (in vivo) is “no significant effects”.
With `COCC[C@H]1C[C@@H]1c1cncc(OC[C@@H]2CCCN2C)c1.O=C(O)C(F)(F)F` [Compound 26, 3-[(1-Methyl-2(S)-pyrrolidinyl)methoxy]-5-[(1S,2R)-2-(2-methoxyethyl)cyclopropyl]pyridine Trifluoroacetate], the “minimal dose with significant reduction in immobility” value in the series on BALB/cJ male mice (in vivo, ip) is 1 mg/kg; in the series on BALB/cJ male mice (in vivo, po) it was 1 mg/kg. Also, in the series on Caco-2 cells, the permeability class entry was “high permeability”. Further, the efflux ratio in series [1] was found to be 0.2. In addition, in series [2], the chemical stability result is “little or no sign of decomposition”. In [3], the “Ames test mutagenic potential” value was “positive significance”.
Take `COCC[C@H]1C[C@@H]1c1cncc(OC[C@H]2CCNC2)c1.O=C(O)C(F)(F)F` [Compound 30, 3-[(3(S)-Pyrrolidinyl)methoxy]-5-[(1S,2R)-2-(2-methoxyethyl)cyclopropyl]pyridine Trifluoroacetate]: the abnormal behavioral effects entry in the series on BALB/cJ male mice (intraperitoneal, 5 mg/kg) is “sedation and tremor”.
In the case of `OCCCCC#Cc1cncc(OC[C@@H]2CCN2)c1` [saz-A, sazetidine-A], the Ki on rat α3β4 nAChR (read-out: Ki α3β4) was 1900 nM; on rat α2β4 nAChR, 210 nM; on rat α2β2 nAChR, 0.087 nM; at rat α3β2 nAChR it was 0.38 nM; at rat α4β4 nAChR, 52 nM; in series [4], 0.17 nM. In addition, the Ki at rat α4β2 nAChR is 0.062 nM.
On to `CN[C@H]1CC[C@@H](c2ccc(Cl)c(Cl)c2)c2ccccc21` [sertraline, reference compound], for which the “effect on immobility (positive control)” value in the series with BALB/cJ male mice (20 mg/kg) is “expected decrease in immobility”.
